Target: T1, IRAK4 kinase (Homo sapiens, UniProt Q9NWZ3)
T1 construct: purchased Carna 09-145
T1 sequence (Q9NWZ3 1-460): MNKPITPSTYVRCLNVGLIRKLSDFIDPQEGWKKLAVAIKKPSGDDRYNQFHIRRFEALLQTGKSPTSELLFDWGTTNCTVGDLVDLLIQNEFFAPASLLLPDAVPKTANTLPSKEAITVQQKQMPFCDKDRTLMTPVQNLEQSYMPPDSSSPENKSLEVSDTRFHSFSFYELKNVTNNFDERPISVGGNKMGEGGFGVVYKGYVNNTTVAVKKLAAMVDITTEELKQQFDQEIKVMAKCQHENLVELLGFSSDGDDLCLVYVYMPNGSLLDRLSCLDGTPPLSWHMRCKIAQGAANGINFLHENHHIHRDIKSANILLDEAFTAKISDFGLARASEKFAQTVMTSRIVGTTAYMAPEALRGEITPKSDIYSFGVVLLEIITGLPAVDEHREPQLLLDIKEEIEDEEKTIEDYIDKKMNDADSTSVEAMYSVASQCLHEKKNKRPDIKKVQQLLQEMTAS
Assay: Compound inhibition of IRAK4 kinase activity (fluorescence microfluidic mobility shift assay)
Format: biochemical
Conditions: Table 2; 10 μM ATP, 6 nM IRAK4 kinase
Experimental: Based on the experimental method of fluorescence microfluidic mobility shift assay, the IC50 value of the compound for competitive binding of ATP to IRAK4 kinase was determined. The initial detection concentration of the compound was 10 μM, which was 4-fold serially diluted to 0.38 nM and assayed in duplicate. In this case, commercially available staurosporine was the standard control for the assay.
1) IRAK4 kinase was dissolved in kinase buffer (50 mM HEPES pH 7.5, 10 mM MgCl2, 2 mM DDT, and 0.01% Brij-35) at a final concentration of 6 nM.
2) The substrate peptide FAM-P8 and ATP were dissolved in the above kinase buffer, and the final concentrations of the substrate peptide FAM-P8 and ATP for IRAK4 were 3 μM and 10 μM, respectively.
3) Compound dilution: The compound was first diluted to 50 μM, and then 4-fold serially diluted with DMSO. In this case, the solution without compound and kinase served as the blank control, corresponding to the “minimum value” shown below; the solution without compound but containing kinase, adenosine 5′-triphosphate disodium salt hydrate, DMSO, and the buffer served as the positive control, corresponding to the “maximum value” shown below.
4) Kinase reaction and termination: 10 μL of the kinase buffer was added to a 384-well plate containing 5 μL of the compound to be tested, and the mixture was incubated at room temperature for 10 minutes; another 10 μL of buffer containing the substrate peptide and adenosine 5′-triphosphate disodium salt hydrate was added to the 384-well plate, and after incubation at 28° C. for 1 hour, 25 μL of termination solution (100 mM HEPES pH 7.5, 50 mM EDTA, 0.2% Coating Reagent #3, and 0.015% Brij-35) was added to each well to terminate the reaction.
5) Data reading: CaliperEZ Reader II instrument was used to read the conversion rate data. Setting conditions: downstream voltage as −500 V, upstream voltage as −2250 V, base pressure as −0.5 PSI, and screening pressure as −1.2 PSI.
6) Data calculation: the conversion rate data was copied from CaliperEZ Reader II, and the conversion rate was converted into inhibition rate data. The calculation formula is as follows: Inhibition percentage (%)=(maximum value−conversion rate)/(maximum value−minimum value)*100%
IC50 values were fitted with XLFit excel add-in version 5.4.0.8.

`COc1cc2nn(CCC3CCN(CC(=O)N4CC5(CC(CC(=O)N[C@H](C(=O)N6C[C@H](O)C[C@H]6C(=O)N[C@@H](C)c6ccc(-c7scnc7C)cc6)C(C)(C)C)C5)C4)CC3)cc2cc1NC(=O)c1cccc(C(F)(F)F)n1` [III-70] was tested. Which IC50 did it give?
The IC50 was < 100 nM.

How did the IC50 turn out when `COc1cc2c(cc1NC(=O)c1cccc(C(F)(F)F)n1)CN(CCN1CCN(CC(=O)N3CCC4(CC3)CCN(c3cccc5c3C(=O)N(C3CCC(=O)NC3=O)C5=O)CC4)CC1)C2=O` (centres unmarked) [III-58] was run?
The IC50 was 100 to 1000 nM.

Which IC50 does the source give for `COc1cc2nn(CCN3CCN(CC(=O)N4CCC5(CC4)CCN(c4cccc6c4C(=O)N(C4CCC(=O)NC4=O)C6=O)CC5)CC3)cc2cc1NC(=O)c1cccc(C(F)(F)F)n1` (centres unmarked) [III-38] here?
The IC50 was < 100 nM.

`COc1cc2nn(CCN3CCN(CC(=O)N4CCC5(CC4)CN(c4cccc6c4C(=O)N(C4CCC(=O)NC4=O)C6=O)C5)CC3)cc2cc1NC(=O)c1cccc(C(F)(F)F)n1` (centres unmarked) [III-62] was tested. Which IC50 did it give?
The IC50 was < 100 nM.

For `CC(C)Oc1cc2nn(CCN3CCN(CC(=O)N4CC5(C4)CN(c4cccc6c4C(=O)N(C4CCC(=O)NC4=O)C6=O)C5)CC3)cc2cc1NC(=O)c1cccc(C(F)(F)F)n1` (centres unmarked) [III-60], which IC50 is on record?
The IC50 was < 100 nM.

`COc1cc2c(cc1NC(=O)c1cccc(C(F)(F)F)n1)CN(CCC(C)(C)C(=O)N1CC3(C1)CN(c1cccc4c1C(=O)N(C1CCC(=O)NC1=O)C4=O)C3)C2=O` (centres unmarked) [III-64] was tested. Which IC50 did it give?
Its IC50 is 100 to 1000 nM.

For `COc1cc2c(cc1NC(=O)c1cccc(C(F)(F)F)n1)CN(CCN1CCN(CC(=O)N3CCC4(CCC(NC(C(=O)N5CC(O)CC5C(=O)NC(C)c5ccc(-c6scnc6C)cc5)C(C)(C)C)CC4)CC3)CC1)C2=O` (centres unmarked) [III-44], which IC50 is on record?
Its IC50 is 100 to 1000 nM.

With `COc1cc2nn(CCN3CCN(CC(=O)N4CCC5(CC4)CCN(c4cc6c(cc4F)C(=O)N(C4CCC(=O)NC4=O)C6=O)CC5)CC3)cc2cc1NC(=O)c1cccc(C(F)(F)F)n1` (centres unmarked) [III-55] as the compound, how does the IC50 read?
Its IC50 is < 100 nM.

How did the IC50 turn out when `COc1cc2c(cc1NC(=O)c1cccc(C(F)(F)F)n1)CN(CCC(C)(C)C(=O)N1CCC3(CC1)CCN(c1ncc(C(=O)N[C@H](C(=O)N4C[C@H](O)C[C@H]4C(=O)N[C@@H](C)c4ccc(-c5scnc5C)cc4)C(C)(C)C)cn1)CC3)C2=O` [III-32] was run?
The IC50 was 100 to 1000 nM.

For `COc1cc2nn(CCN3CCN(CC(=O)N4CCC5(CCC(C(=O)N[C@H](C(=O)N6C[C@H](O)C[C@H]6C(=O)N[C@@H](C)c6ccc(-c7scnc7C)cc6)C(C)(C)C)CC5)CC4)[C@H](C)C3)cc2cc1NC(=O)c1cccc(C(F)(F)F)n1` [III-48], which IC50 is on record?
The IC50 was < 100 nM.

`COc1cc2nn(CCN3CCN(CC(=O)N4CCC5(CC4)CCN(c4cccc6c4C(=O)N(C4CCC(=O)NC4=O)C6=O)CC5)[C@@H](C)C3)cc2cc1NC(=O)c1cccc(C(F)(F)F)n1` (some centres unmarked) [III-46] was tested. Which IC50 did it give?
The IC50 was < 100 nM.

`COc1cc2nn(CCN3CCC(CC(=O)N4CCC5(CC4)CCN(c4cccc6c4C(=O)N(C4CCC(=O)NC4=O)C6=O)CC5)CC3)cc2cc1NC(=O)c1cccc(C(F)(F)F)n1` (centres unmarked) [III-71] was tested. Which IC50 did it give?
Its IC50 is < 100 nM.

`COc1cc2nn(CCN3CCN(CC(=O)N4CC5(C4)CN(c4cccc6c4C(=O)N(C4CCC(=O)NC4=O)C6=O)C5)CC3)cc2cc1NC(=O)c1cccc(C(F)(F)F)n1` (centres unmarked) [III-61] was tested. Which IC50 did it give?
The IC50 was < 100 nM.

For `COc1cc2nn(CC#CC3CCN(CC(=O)N4CCC5(CC4)CCN(c4cccc6c4C(=O)N(C4CCC(=O)NC4=O)C6=O)CC5)CC3)cc2cc1NC(=O)c1cccc(C(F)(F)F)n1` (centres unmarked) [III-67], which IC50 is on record?
Its IC50 is < 100 nM.

`COc1cc2nn(CCN3CCC(CC(=O)N4CC5(C4)CN(c4cccc6c4C(=O)N(C4CCC(=O)NC4=O)C6=O)C5)CC3)cc2cc1NC(=O)c1cccc(C(F)(F)F)n1` (centres unmarked) [III-72] was tested. Which IC50 did it give?
The IC50 was < 100 nM.

`COc1cc2nn(CCN3C4CCC3CN(CC(=O)N3CCC5(CC3)CCN(c3cccc6c3C(=O)N(C3CCC(=O)NC3=O)C6=O)CC5)C4)cc2cc1NC(=O)c1cccc(C(F)(F)F)n1` (centres unmarked) [III-53] was tested. Which IC50 did it give?
Its IC50 is < 100 nM.

For `COc1cc2c(cc1NC(=O)c1cccc(C(F)(F)F)n1)CN(CCC(C)(C)C(=O)N1CCC3(CC1)CN(c1cccc4c1C(=O)N(C1CCC(=O)NC1=O)C4=O)C3)C2=O` (centres unmarked) [III-59], which IC50 is on record?
Its IC50 is 100 to 1000 nM.
